The values that follow come from PubChem BioAssay (NCI).

Molecules are shown by their SMILES.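 Test compounds were applied to cells in 96-well plates for 48 hours at 5 doses. GI50 marks 50% less growth. At the TGI there is no net growth.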

Some test systems named below: HOP-62 NSCLC; SNB-19 CNS; LOX IMVI melanoma; OVCAR-5 ovarian; OVCAR-3 ovarian; TK-10 renal; RPMI-8226 leukemia; NCI-H226 lung; SNB-75 CNS; NCI-H460 lung.
Holding throughout (assay): NCI anticancer screen, dose series, 48 h

For `O=C(CSCC(=O)N/N=C/c1ccccc1O)N/N=C\c1ccccc1O`, the GI50 with HOP-62 NSCLC was 1.31 µM; with SNB-19 CNS, 2.95 µM; in the test on LOX IMVI melanoma, 0.748 µM; in the test on OVCAR-5 ovarian, 5.11 µM; in the test on OVCAR-3 ovarian it was 4.76 µM; in the test with TK-10 renal, 1.83 µM. The GI50 in the test with RPMI-8226 leukemia is 3.49 µM; in the test on NCI-H226 lung, 3.43 µM; in the test with SNB-75 CNS, 67.7 µM; in the test with NCI-H460 lung it was 2.27 µM. Besides, the TGI in the test with HOP-62 NSCLC, with SNB-19 CNS, in the test on LOX IMVI melanoma, in the test with OVCAR-5 ovarian, in the test with OVCAR-3 ovarian and in the test on TK-10 renal was over 100 µM throughout. The TGI in the test with RPMI-8226 leukemia, with NCI-H226 lung, in the test on SNB-75 CNS and with NCI-H460 lung was over 100 µM throughout.

For the compound `Cc1ccc(Nc2cc(Cl)c([N+](=O)[O-])cc2[N+](=O)[O-])cc1`, the GI50 was 5.82 µM with HOP-62 NSCLC; 6.33 µM in the test on SNB-19 CNS; 1.15 µM with LOX IMVI melanoma; 6.62 µM in the test with OVCAR-5 ovarian; 3.33 µM in the test on OVCAR-3 ovarian; 6.03 µM in the test on TK-10 renal. The GI50 in the test on RPMI-8226 leukemia is 2.92 µM; in the test with NCI-H226 lung it was 2.59 µM; in the test on SNB-75 CNS, 3.91 µM; with NCI-H460 lung, 2.35 µM. Further, the TGI turned out to be 16.2 µM with HOP-62 NSCLC; 17.7 µM with SNB-19 CNS; 5.62 µM in the test with LOX IMVI melanoma; 20.9 µM in the test with OVCAR-5 ovarian; 7.85 µM with OVCAR-3 ovarian; 17.5 µM in the test with TK-10 renal. Also, the TGI was found to be 9.45 µM in the test on RPMI-8226 leukemia, 6.81 µM with NCI-H226 lung, 17.5 µM in the test with SNB-75 CNS and 5.45 µM with NCI-H460 lung.

For the compound `C/C=C/C/C=C/[C@H](C)C[C@H](O)[C@@H]1C[C@@H]2O[C@H]2/C=C/[C@@H]2OC(C)(C)O[C@H]2/C=C/C[C@H](C)CC(=O)O1`, the GI50 is 15.1 µM in the test with HOP-62 NSCLC; 21.7 µM in the test on SNB-19 CNS; 7.62 µM in the test on LOX IMVI melanoma; 73.8 µM in the test with OVCAR-5 ovarian; 12.4 µM in the test on OVCAR-3 ovarian; 51.8 µM in the test with TK-10 renal. Moreover, the GI50 with RPMI-8226 leukemia is 3.16 µM; with NCI-H226 lung, 6.08 µM; with SNB-75 CNS, 24.6 µM; with NCI-H460 lung, 5.65 µM. Moreover, the TGI with HOP-62 NSCLC is 90.2 µM; with SNB-19 CNS, over 100 µM; in the test with LOX IMVI melanoma it was over 100 µM; in the test with OVCAR-5 ovarian, over 100 µM; with OVCAR-3 ovarian, over 100 µM; in the test with TK-10 renal it was over 100 µM. Moreover, the TGI in the test with RPMI-8226 leukemia was 37 µM; in the test on NCI-H226 lung it was over 100 µM; with SNB-75 CNS it was over 100 µM; in the test on NCI-H460 lung, over 100 µM.

For the compound `CC[C@@]1(OC(=O)C(N)CCCCN)C(=O)OCc2c1cc1n(c2=O)Cc2cc3ccccc3nc2-1` (stereo not given in full), the TGI in the test on HOP-62 NSCLC amounted to 0.0667 µM; with SNB-19 CNS, 12.2 µM; in the test with LOX IMVI melanoma it was 0.18 µM; in the test with OVCAR-5 ovarian, 3.86 µM; with OVCAR-3 ovarian, 2.37 µM; with TK-10 renal it was 65.9 µM. In addition, the TGI was found to be 0.883 µM in the test with RPMI-8226 leukemia, 2.7 µM in the test on NCI-H226 lung, 0.609 µM in the test on SNB-75 CNS and 0.372 µM with NCI-H460 lung.

For `Cc1cc(C(=O)Nc2n[nH]c3ccccc23)n[nH]1`, the GI50 is over 100 µM with HOP-62 NSCLC; over 100 µM in the test with SNB-19 CNS; over 100 µM with LOX IMVI melanoma; 67.9 µM in the test with OVCAR-5 ovarian; over 100 µM in the test on OVCAR-3 ovarian; over 100 µM in the test on TK-10 renal. The GI50 with RPMI-8226 leukemia was over 100 µM; in the test on NCI-H226 lung, over 100 µM; in the test with SNB-75 CNS it was 62.6 µM; in the test on NCI-H460 lung it was over 100 µM. In addition, the TGI in the test with HOP-62 NSCLC, in the test with SNB-19 CNS, with LOX IMVI melanoma, in the test with OVCAR-5 ovarian, with OVCAR-3 ovarian and in the test with TK-10 renal was over 100 µM each time. For the same compound, the TGI in the test on RPMI-8226 leukemia, in the test on NCI-H226 lung, in the test with SNB-75 CNS and in the test on NCI-H460 lung was over 100 µM in each case.

On to `COC(=O)CCC(=O)N1C/C(=C\c2ccccc2)C(=O)/C(=C/c2ccccc2)C1`, for which the TGI is 28.7 µM in the test on HOP-62 NSCLC; 14.5 µM in the test on SNB-19 CNS; 1.59 µM with LOX IMVI melanoma; 6.24 µM in the test with OVCAR-5 ovarian; 5.01 µM in the test with OVCAR-3 ovarian; 13.2 µM in the test with TK-10 renal. The TGI was over 100 µM in the test with RPMI-8226 leukemia, 13.5 µM with NCI-H226 lung, 5.27 µM with SNB-75 CNS and 10.8 µM with NCI-H460 lung.

As for `N#COc1ccc(Oc2ccccc2)cc1`, the TGI is over 100 µM in the test on HOP-62 NSCLC; over 100 µM with SNB-19 CNS; 40.9 µM in the test with LOX IMVI melanoma; over 100 µM with OVCAR-5 ovarian; over 100 µM in the test on OVCAR-3 ovarian; over 100 µM in the test on TK-10 renal. Also, the TGI was 83.5 µM in the test on RPMI-8226 leukemia, over 100 µM in the test on NCI-H226 lung, over 100 µM with SNB-75 CNS and over 100 µM with NCI-H460 lung.

Turning to `O=C(O)c1cc2ccccc2c2c3c(ccc12)OCO3`, the GI50 was 176 µM in the test with HOP-62 NSCLC; 152 µM in the test with SNB-19 CNS; 223 µM in the test with LOX IMVI melanoma; 279 µM in the test on OVCAR-5 ovarian; 183 µM in the test on OVCAR-3 ovarian; 231 µM in the test on TK-10 renal. Further, the GI50 in the test on RPMI-8226 leukemia was 139 µM; with NCI-H226 lung, 123 µM; in the test with SNB-75 CNS, 77.8 µM; with NCI-H460 lung it was 265 µM. Moreover, the TGI in the test on HOP-62 NSCLC is 697 µM; in the test on SNB-19 CNS, 849 µM; in the test with LOX IMVI melanoma, 766 µM; in the test with OVCAR-5 ovarian, over 1000 µM; with OVCAR-3 ovarian it was 468 µM; with TK-10 renal, 616 µM. In addition, the TGI with RPMI-8226 leukemia was 738 µM; in the test on NCI-H226 lung, 818 µM; in the test with SNB-75 CNS, 265 µM; in the test with NCI-H460 lung it was over 1000 µM.

Regarding `C1OC1CN1CCN(CC2CO2)CC1` (stereo not given), the TGI in the test on HOP-62 NSCLC is 69.7 µM; in the test on SNB-19 CNS, over 100 µM; in the test with LOX IMVI melanoma it was over 100 µM; with OVCAR-5 ovarian, over 100 µM; in the test on OVCAR-3 ovarian, over 100 µM; in the test on TK-10 renal, over 100 µM. In addition, the TGI in the test with RPMI-8226 leukemia, in the test with NCI-H226 lung, with SNB-75 CNS and in the test on NCI-H460 lung was over 100 µM each time.
